Assay results reported in PMC5218480 (PLoS ONE, 2017).

Tested on: MV-4-11 cells
Assay: Gene expression microarray analysis (Affymetrix PrimeView) and GSEA
Assay type: cell-based, human
Set-up: RFU PODN (11730768_x_at) / Fold change /veh PODN (11730768_x_at) / RFU LINC00158 (11744669_a_at) / Fold change /veh LINC00158 (11744669_a_at) / RFU DUSP10 (11751237_a_at) / Fold change /veh DUSP10 (11751237_a_at) / RFU ID3 (11757404_x_at) / Fold change /veh ID3 (11757404_x_at) / RFU PLEKHG5 (11737974_s_at) / Fold change /veh PLEKHG5 (11737974_s_at) / RFU LRRC4B (11730491_at) / Fold change /veh LRRC4B (11730491_at) / RFU GIMAP4 (11747438_a_at) / Fold change /veh GIMAP4 (11747438_a_at) / RFU KRT8 (11758183_x_at) / Fold change /veh KRT8 (11758183_x_at) / RFU CNN1 (11734310_a_at) / Fold change /veh CNN1 (11734310_a_at) / RFU VPS37D (11726825_at) / Fold change /veh VPS37D (11726825_at) / RFU C10orf10 (11716522_x_at) / Fold change /veh C10orf10 (11716522_x_at) / RFU KIR2DL2 /// KIR2DL4 /// KIR2DL5A /// KIR2DL5B /// KIR2DS1 /// KIR2DS2 /// KIR2DS3 /// KIR2DS4 /// KIR3DL3 /// KIR3DL3 /// KIR3DS1 (11738374_at) / Fold change /veh KIR2DL2 /// KIR2DL4 /// KIR2DL5A /// KIR2DL5B /// KIR2DS1 /// KIR2DS2 /// KIR2DS3 /// KIR2DS4 /// KIR3DL3 /// KIR3DL3 /// KIR3DS1 (11738374_at) / RFU C1QL1 (11718748_at) / Fold change /veh C1QL1 (11718748_at) / RFU TMPRSS4 (11747572_a_at) / Fold change /veh TMPRSS4 (11747572_a_at) / RFU HAMP (11756126_x_at) / Fold change /veh HAMP (11756126_x_at) / RFU RNFT2 (11725882_a_at) / Fold change /veh RNFT2 (11725882_a_at) / RFU NR4A2 (11747474_a_at) / Fold change /veh NR4A2 (11747474_a_at) / RFU ABCC12 (11746883_a_at) / Fold change /veh ABCC12 (11746883_a_at) / RFU TMEM136 (11760407_x_at) / Fold change /veh TMEM136 (11760407_x_at) / RFU CLDN22 /// WWC2 (11732394_at) / Fold change /veh CLDN22 /// WWC2 (11732394_at) / RFU HLA-DPB1 (11760878_x_at) / Fold change /veh HLA-DPB1 (11760878_x_at) / RFU SPINT1 (11716480_a_at) / Fold change /veh SPINT1 (11716480_a_at) / RFU GAP43 (11754022_s_at) / Fold change /veh GAP43 (11754022_s_at) / RFU A4GNT (11735810_at) / Fold change /veh A4GNT (11735810_at) / RFU PRB3 (11715151_x_at) / Fold change /veh PRB3 (11715151_x_at) / RFU TUBB4B (11761932_at) / Fold change /veh TUBB4B (11761932_at) / RFU CAPN14 (11732068_a_at) / Fold change /veh CAPN14 (11732068_a_at) / RFU TMCC2 (11721928_a_at) / Fold change /veh TMCC2 (11721928_a_at) / RFU IRGQ (11745062_a_at) / Fold change /veh IRGQ (11745062_a_at) / RFU FAM174B (11720279_a_at) / Fold change /veh FAM174B (11720279_a_at) / RFU TMPRSS4 (11748680_a_at) / Fold change /veh TMPRSS4 (11748680_a_at) / RFU FAM212B (11763350_a_at) / Fold change /veh FAM212B (11763350_a_at) / RFU PLEKHG5 (11743358_a_at) / Fold change /veh PLEKHG5 (11743358_a_at) / RFU ZSCAN30 (11745921_a_at) / Fold change /veh ZSCAN30 (11745921_a_at) / RFU CMKLR1 (11741424_a_at) / Fold change /veh CMKLR1 (11741424_a_at) / RFU LOC101060620 /// MAPK8IP1 (11723275_at) / Fold change /veh LOC101060620 /// MAPK8IP1 (11723275_at) / RFU SPTSSB (11747773_x_at) / Fold change /veh SPTSSB (11747773_x_at) / RFU PRSS12 (11739890_at) / Fold change /veh PRSS12 (11739890_at) / RFU BIN1 (11741810_x_at) / Fold change /veh BIN1 (11741810_x_at) / RFU WNT11 (11732464_a_at) / Fold change /veh WNT11 (11732464_a_at) / RFU C10orf10 (11716521_a_at) / Fold change /veh C10orf10 (11716521_a_at) / RFU C5orf56 (11738089_at) / Fold change /veh C5orf56 (11738089_at) / RFU CYB561 (11721691_x_at) / Fold change /veh CYB561 (11721691_x_at) / RFU ANKRD19P (11752326_a_at) / Fold change /veh ANKRD19P (11752326_a_at) / RFU OR2T12 /// OR2T33 /// OR2T8 (11738714_s_at) / Fold change /veh OR2T12 /// OR2T33 /// OR2T8 (11738714_s_at) / RFU VCAN (11748164_a_at) / Fold change /veh VCAN (11748164_a_at) / RFU JSRP1 (11732532_at) / Fold change /veh JSRP1 (11732532_at) / RFU KRTAP10-11 (11738290_x_at) / Fold change /veh KRTAP10-11 (11738290_x_at) / RFU MYO3A (11730013_a_at) / Fold change /veh MYO3A (11730013_a_at) / RFU EBF3 (11725865_a_at) / Fold change /veh EBF3 (11725865_a_at) / RFU CAMK2N1 (11719241_x_at) / Fold change /veh CAMK2N1 (11719241_x_at) / RFU C5orf56 (11738088_a_at) / Fold change /veh C5orf56 (11738088_a_at) / RFU OLFML3 (11715873_a_at) / Fold change /veh OLFML3 (11715873_a_at) / RFU LOC100653217 /// NTM (11731650_a_at) / Fold change /veh LOC100653217 /// NTM (11731650_a_at) / RFU MAPK11 (11762145_a_at) / Fold change /veh MAPK11 (11762145_a_at) / RFU FIZ1 (11724087_x_at) / Fold change /veh FIZ1 (11724087_x_at) / RFU OASL (11726364_x_at) / Fold change /veh OASL (11726364_x_at) / RFU SOX15 (11748057_x_at) / Fold change /veh SOX15 (11748057_x_at) / RFU CD79A (11719716_a_at) / Fold change /veh CD79A (11719716_a_at) / RFU HIST1H1D (11736915_at) / Fold change /veh HIST1H1D (11736915_at) / RFU CASKIN2 (11723855_a_at) / Fold change /veh CASKIN2 (11723855_a_at) / RFU LOC730098 (11760151_x_at) / Fold change /veh LOC730098 (11760151_x_at) / RFU OR4N2 (11742367_at) / Fold change /veh OR4N2 (11742367_at) / RFU PRRT2 (11749266_a_at) / Fold change /veh PRRT2 (11749266_a_at) / RFU SNX32 (11753110_a_at) / Fold change /veh SNX32 (11753110_a_at) / RFU CDHR5 (11726645_a_at) / Fold change /veh CDHR5 (11726645_a_at) / RFU RCAN1 (11760418_a_at) / Fold change /veh RCAN1 (11760418_a_at) / RFU FAM167A (11723789_a_at) / Fold change /veh FAM167A (11723789_a_at) / RFU FAM26E (11764081_at) / Fold change /veh FAM26E (11764081_at) / RFU ISYNA1 (11749810_s_at) / Fold change /veh ISYNA1 (11749810_s_at) / RFU ACY1 (11761880_at) / Fold change /veh ACY1 (11761880_at) / RFU 11764098_at / Fold change /veh 11764098_at / RFU SAMD14 (11745864_x_at) / Fold change /veh SAMD14 (11745864_x_at) / RFU NPB (11741838_a_at) / Fold change /veh NPB (11741838_a_at) / RFU TMPRSS6 (11731388_a_at) / Fold change /veh TMPRSS6 (11731388_a_at) / RFU KRTAP10-2 (11738614_at) / Fold change /veh KRTAP10-2 (11738614_at) / RFU ARHGAP8 /// PRR5-ARHGAP8 (11727945_x_at) / Fold change /veh ARHGAP8 /// PRR5-ARHGAP8 (11727945_x_at) / RFU KRTAP5-7 /// NADSYN1 (11734609_at) / Fold change /veh KRTAP5-7 /// NADSYN1 (11734609_at) / RFU RASL12 (11751679_a_at) / Fold change /veh RASL12 (11751679_a_at) / RFU CDKN2B (11736163_a_at) / Fold change /veh CDKN2B (11736163_a_at) / RFU PRF1 (11729649_at) / Fold change /veh PRF1 (11729649_at) / RFU, ZNF638 /// ZNF638-IT1 / Fold change vs veh, ZNF638 /// ZNF638-IT1 / RFU, PANK3 / Fold change vs veh, PANK3 / RFU, SH3YL1 / Fold change vs veh, SH3YL1 / RFU, ZEB2 / Fold change vs veh, ZEB2 / RFU, NRIP1 / Fold change vs veh, NRIP1 / RFU, PTTG1IP / Fold change vs veh, PTTG1IP / RFU, CAPN2 / Fold change vs veh, CAPN2 / RFU, MED14 / Fold change vs veh, MED14 / RFU, SNORA58 / Fold change vs veh, SNORA58 / RFU, C1orf63 / Fold change vs veh, C1orf63 / RFU, LRRFIP1 / Fold change vs veh, LRRFIP1 / RFU, NDUFAF7 / Fold change vs veh, NDUFAF7 / RFU, SLC12A2 / Fold change vs veh, SLC12A2 / RFU, IBTK / Fold change vs veh, IBTK / RFU, ESF1 / Fold change vs veh, ESF1 / Fold change vs veh, TMEM50B / RFU, TAOK1 / Fold change vs veh, TAOK1 / RFU, ACBD3 / Fold change vs veh, ACBD3 / RFU, TMA16 / Fold change vs veh, TMA16 / RFU, RWDD3 / Fold change vs veh, RWDD3 / RFU, BCAT1 / Fold change vs veh, BCAT1 / RFU, EDEM3 / Fold change vs veh, EDEM3 / RFU, TMEM33 / Fold change vs veh, TMEM33 / RFU, WDR75 / Fold change vs veh, WDR75 / RFU, AHCTF1 / Fold change vs veh, AHCTF1 / RFU, TFRC / Fold change vs veh, TFRC / RFU, ZDHHC17 / Fold change vs veh, ZDHHC17 / RFU, NOM1 / Fold change vs veh, NOM1 / RFU, ARL8B / Fold change vs veh, ARL8B / RFU, ZBTB11 / Fold change vs veh, ZBTB11 / RFU, TAMM41 / Fold change vs veh, TAMM41 / RFU, KIAA1704 /// LOC100996395 / Fold change vs veh, KIAA1704 /// LOC100996395 / RFU, ING1 / Fold change vs veh, ING1 / RFU, TRMT61B / Fold change vs veh, TRMT61B / RFU, FUBP3 / Fold change vs veh, FUBP3 / RFU, TP53 / Fold change vs veh, TP53 / RFU, TNKS2 / Fold change vs veh, TNKS2 / RFU, ZFP14 / Fold change vs veh, ZFP14 / RFU, ACTR2 / Fold change vs veh, ACTR2 / RFU, PPP3R1 / Fold change vs veh, PPP3R1 / RFU, PIK3R1 / Fold change vs veh, PIK3R1 / RFU, HNRNPA1 / Fold change vs veh, HNRNPA1 / RFU, RNF170 / Fold change vs veh, RNF170 / RFU, ZNF28 / Fold change vs veh, ZNF28 / RFU, RNGTT / Fold change vs veh, RNGTT / RFU, OGT / Fold change vs veh, OGT / RFU, BRD1 / Fold change vs veh, BRD1 / RFU, MARS / Fold change vs veh, MARS / RFU, ZNF655 / Fold change vs veh, ZNF655 / RFU, FAHD1 / Fold change vs veh, FAHD1 / RFU, BDP1 / Fold change vs veh, BDP1 / RFU, LRRCC1 / Fold change vs veh, LRRCC1 / RFU, ARID1A / Fold change vs veh, ARID1A / RFU, ZNF146 / Fold change vs veh, ZNF146 / RFU, ZNF330 / Fold change vs veh, ZNF330 / RFU, GPN3 / Fold change vs veh, GPN3 / RFU, C9orf123 / Fold change vs veh, C9orf123 / RFU, N4BP2L2 / Fold change vs veh, N4BP2L2 / RFU, ARFIP1 / Fold change vs veh, ARFIP1 / RFU, FAM179B / Fold change vs veh, FAM179B / RFU, BCL10 / Fold change vs veh, BCL10 / RFU, UHRF1BP1L / Fold change vs veh, UHRF1BP1L / RFU, BET1 / Fold change vs veh, BET1 / RFU, CNOT2 / Fold change vs veh, CNOT2 / RFU, ZNF268 / Fold change vs veh, ZNF268 / Fold change vs veh, ZNF507 / RFU, DGCR2 / Fold change vs veh, DGCR2 / RFU, WDSUB1 / Fold change vs veh, WDSUB1 / Fold change vs veh, HSP90B1 /// MIR3652 / RFU, ADSS / Fold change vs veh, ADSS / RFU, GK / Fold change vs veh, GK / RFU, ZNF148 / Fold change vs veh, ZNF148 / RFU, TAF9 / Fold change vs veh, TAF9 / RFU, SLC1A5 / Fold change vs veh, SLC1A5 / RFU, SLMO2 / Fold change vs veh, SLMO2 / RFU, ABCC4 / Fold change vs veh, ABCC4 / RFU, LOC101060439 /// RAP1B / Fold change vs veh, LOC101060439 /// RAP1B / RFU, RFX7 / Fold change vs veh, RFX7 / RFU, GTPBP10 / Fold change vs veh, GTPBP10 / RFU, CNEP1R1 / Fold change vs veh, CNEP1R1 / RFU, BIVM-ERCC5 /// ERCC5 / Fold change vs veh, BIVM-ERCC5 /// ERCC5 / RFU, ILF3 / Fold change vs veh, ILF3 / RFU 11762660_at / Fold change /veh 11762660_at / RFU VCAN (11757783_s_at) / Fold change /veh VCAN (11757783_s_at) / RFU DDX43 (11728927_at) / Fold change /veh DDX43 (11728927_at) / RFU KRT8 (11758188_x_at) / Fold change /veh KRT8 (11758188_x_at) / RFU NKD1 (11759106_at) / Fold change /veh NKD1 (11759106_at) / RFU SRD5A1 (11742802_a_at) / Fold change /veh SRD5A1 (11742802_a_at) / RFU TPSAB1 /// TPSB2 (11721975_s_at) / Fold change /veh TPSAB1 /// TPSB2 (11721975_s_at) / RFU GSTM3 (11746129_a_at) / Fold change /veh GSTM3 (11746129_a_at) / RFU IL23R (11737362_x_at) / Fold change /veh IL23R (11737362_x_at) / RFU TMEM51 (11727254_a_at) / Fold change /veh TMEM51 (11727254_a_at) / RFU PIWIL2 (11732686_x_at) / Fold change /veh PIWIL2 (11732686_x_at) / RFU ORM1 (11744905_x_at) / Fold change /veh ORM1 (11744905_x_at) / RFU CCDC152 (11743942_at) / Fold change /veh CCDC152 (11743942_at) / RFU ECM1 (11717891_a_at) / Fold change /veh ECM1 (11717891_a_at) / RFU IL23R (11748794_a_at) / Fold change /veh IL23R (11748794_a_at) / RFU TNFAIP8L3 (11732012_x_at) / Fold change /veh TNFAIP8L3 (11732012_x_at) / RFU MBOAT4 (11741988_at) / Fold change /veh MBOAT4 (11741988_at) / RFU 11764193_at / Fold change /veh 11764193_at / RFU TMEM53 (11763286_at) / Fold change /veh TMEM53 (11763286_at) / RFU MAGEB2 (11727129_at) / Fold change /veh MAGEB2 (11727129_at) / RFU TMEM200A (11744735_a_at) / Fold change /veh TMEM200A (11744735_a_at) / RFU CCDC152 (11751479_a_at) / Fold change /veh CCDC152 (11751479_a_at) / RFU FAM211A (11726209_a_at) / Fold change /veh FAM211A (11726209_a_at) / RFU RGS16 (11746705_a_at) / Fold change /veh RGS16 (11746705_a_at) / RFU VCAN (11755009_s_at) / Fold change /veh VCAN (11755009_s_at) / RFU RHOB (11743442_s_at) / Fold change /veh RHOB (11743442_s_at) / RFU RGS16 (11720943_a_at) / Fold change /veh RGS16 (11720943_a_at) / RFU RGS16 (11720944_at) / Fold change /veh RGS16 (11720944_at) / RFU, VPS4B / Fold change vs veh, VPS4B / RFU, CREB1 / Fold change vs veh, CREB1 / RFU, DNAJC13 / Fold change vs veh, DNAJC13 / RFU, GNAQ / Fold change vs veh, GNAQ / RFU, CDK5R1 / Fold change vs veh, CDK5R1 / RFU, ZRANB3 / Fold change vs veh, ZRANB3 / RFU, CUL4A / Fold change vs veh, CUL4A / RFU, CCNY / Fold change vs veh, CCNY / RFU, UFL1 / Fold change vs veh, UFL1 / RFU, COG3 / Fold change vs veh, COG3 / RFU, DIAPH2 / Fold change vs veh, DIAPH2 / RFU, SKA2 / Fold change vs veh, SKA2 / RFU, AFF3 / Fold change vs veh, AFF3 / RFU, LMF1 / Fold change vs veh, LMF1 / RFU, IPO11 / Fold change vs veh, IPO11 / RFU, DFFB / Fold change vs veh, DFFB / RFU, FOXP1 / Fold change vs veh, FOXP1 / RFU, CARD8 / Fold change vs veh, CARD8 / RFU, STRN3 / Fold change vs veh, STRN3 / RFU, ADK / Fold change vs veh, ADK / RFU, RASSF2 / Fold change vs veh, RASSF2 / RFU, WIPF1 / Fold change vs veh, WIPF1 / RFU, LARP1B / Fold change vs veh, LARP1B / RFU, RASA1 / Fold change vs veh, RASA1 / RFU, RB1 / Fold change vs veh, RB1 / RFU, PPFIA1 / Fold change vs veh, PPFIA1 / RFU, MAT2A / Fold change vs veh, MAT2A / RFU, CCT5 / Fold change vs veh, CCT5 / RFU, WDR92 / Fold change vs veh, WDR92 / RFU, CUX1 / Fold change vs veh, CUX1 / RFU, TTC7A / Fold change vs veh, TTC7A / RFU, TMEM135 / Fold change vs veh, TMEM135 / RFU, DEPTOR / Fold change vs veh, DEPTOR / RFU, CPM / Fold change vs veh, CPM / RFU, DNAJB6 / Fold change vs veh, DNAJB6 / RFU, CACNA2D3 / Fold change vs veh, CACNA2D3 / RFU, DTX4 / Fold change vs veh, DTX4 / RFU, TFCP2 / Fold change vs veh, TFCP2 / RFU, GMCL1 /// GMCL1P1 / Fold change vs veh, GMCL1 /// GMCL1P1 / RFU, AEBP2 / Fold change vs veh, AEBP2 / RFU, SNHG1 /// SNORD22 /// SNORD25 /// SNORD26 /// SNORD27 /// SNORD28 /// SNORD29 /// SNORD31 / Fold change vs veh, SNHG1 /// SNORD22 /// SNORD25 /// SNORD26 /// SNORD27 /// SNORD28 /// SNORD29 /// SNORD31 / Fold change (Aza/veh), C12orf56 (ProbeSet 11735607_a_at) / Fold change (ACY-1035/veh), C12orf56 (ProbeSet 11735607_a_at) / Fold change (Aza/veh), FGFR1OP (ProbeSet 11751329_s_at) / Fold change (ACY-1035/veh), FGFR1OP (ProbeSet 11751329_s_at) / Fold change (Aza/veh), VPS36 (ProbeSet 11739960_a_at) / Fold change (ACY-1035/veh), VPS36 (ProbeSet 11739960_a_at) / RFU SYPL1 (11715823_x_at) / Fold change /veh SYPL1 (11715823_x_at) / RFU IGFBP7 (11715501_s_at) / Fold change /veh IGFBP7 (11715501_s_at) / RFU REEP3 (11722064_at) / Fold change /veh REEP3 (11722064_at) / RFU IGLL1 (11728026_x_at) / Fold change /veh IGLL1 (11728026_x_at): dose or concentration left out as unconfirmed
Settings: MV-4-11 cells, 48 hours

Nc1ccc(-c2cccs2)cc1NC(=O)c1ccc2c(c1)cc(C1CC1)n2CCN1CCOCC1 [ACY-1035]
Fold change /veh KRT8 (11758183_x_at): 1.06
